Active and inactive are the calls of the source. No cut-off for these calls is given here.
Legend:
[1] = Toxicity in BALB/c mouse assessed as colon damage at 20 mg/kg, po measured after 29 days by H and E staining based analysis; assay type: organism-based; details: in vivo, 696 h, time 29 day
[2] = Drug concentration in mouse heart at 15 mg/kg, iv measured at 7 hrs; assay type: ADME, organism-based; details: read-out: Ct
CT26 [3] = test: Antitumor activity against mouse CT26 cells implanted in BALB/c mouse assessed as tumor growth inhibition at 50 to 100 mg/kg, po administered for 14 days in presence of celecoxib; assay type: functional, organism-based; details: dose 50-100 mg/kg, time 14.0 day
[4] = Drug concentration in mouse kidney at 15 mg/kg, iv measured at 7 hrs; assay type: ADME, organism-based; details: read-out: Ct
[5] = Drug concentration in mouse heart at 30 mg/kg, po measured at 7 hrs; assay type: ADME, organism-based; details: read-out: Ct
CT26 [6] = test: Antitumor activity against mouse CT26 cells implanted in BALB/c mouse assessed as increase in cleaved PARP level at 50 mg/kg, po measured after 14 days; assay type: functional, organism-based; details: time 14.0 day
[7] = Drug concentration in mouse heart at 30 mg/kg, po measured at 24 hrs; assay type: ADME, organism-based; details: read-out: Ct
[8] = Drug concentration in mouse kidney at 30 mg/kg, po measured at 24 hrs; assay type: ADME, organism-based; details: read-out: Ct
CT26 [9] = test: Antitumor activity against mouse CT26 cells implanted in BALB/c mouse assessed as increase in cleaved PARP level at 140 mg/kg, po administered for 3 days; assay type: functional, organism-based; details: time 3.0 day
[10] = Drug concentration in mouse plasma at 15 mg/kg, iv measured at 24 hrs; assay type: ADME, organism-based
[11] = Toxicity in BALB/c mouse assessed as maximum tolerated dose at IV measured for 7 days; details: in vivo, time 7 day
[12] = Drug concentration in mouse liver at 15 mg/kg, iv measured at 7 hrs; assay type: ADME, organism-based; details: read-out: Ct
[13] = Toxicity in BALB/c mouse assessed as liver damage at 20 mg/kg, po measured after 29 days by H and E staining based analysis; assay type: organism-based; details: in vivo, 696 h, time 29 day
KPC2 = test: Antitumor activity against mouse KPC2 cells implanted in FVB mouse assessed as reduction in tumor burden at 25 mg/kg, po measured after 14 days; assay type: functional, organism-based; details: time 14.0 day
[14] = Drug concentration in mouse liver at 30 mg/kg, po measured at 7 hrs; assay type: ADME, organism-based; details: read-out: Ct
[15] = Drug concentration in mouse liver at 30 mg/kg, po measured at 24 hrs; assay type: ADME, organism-based; details: read-out: Ct
[16] = Toxicity in BALB/c mouse assessed as stomach damage at 20 mg/kg, po measured after 29 days by H and E staining based analysis; assay type: organism-based; details: in vivo, 696 h, time 29 day
[17] = Toxicity in BALB/c mouse assessed as heart damage at 20 mg/kg, po measured after 29 days by H and E staining based analysis; assay type: organism-based; details: in vivo, 696 h, time 29 day
CT26 [18] = test: Antitumor activity against mouse CT26 cells implanted in BALB/c mouse assessed as increase in animal survival at 100 mg/kg, po measured after 14 days; assay type: functional, organism-based; details: time 14.0 day
[19] = Toxicity in BALB/c mouse assessed as lung damage at 20 mg/kg, po measured after 29 days by H and E staining based analysis; assay type: organism-based; details: in vivo, 696 h, time 29 day
[20] = Drug concentration in mouse plasma at 30 mg/kg, po measured at 7 hrs; assay type: ADME, organism-based
[21] = Toxicity in BALB/c mouse assessed as kidney damage at 20 mg/kg, po measured after 29 days by H and E staining based analysis; assay type: organism-based; details: in vivo, 696 h, time 29 day
CT26 [22] = test: Antitumor activity against mouse CT26 cells implanted in BALB/c mouse assessed as increase in cleaved PARP level at 140 mg/kg, iv administered for 3 days; assay type: functional, organism-based; details: time 3.0 day
[23] = Drug concentration in mouse liver at 15 mg/kg, iv measured at 24 hrs; assay type: ADME, organism-based; details: read-out: Ct
[24] = Drug concentration in mouse kidney at 15 mg/kg, iv measured at 24 hrs; assay type: ADME, organism-based; details: read-out: Ct
CT26 [25] = test: Antitumor activity against mouse CT26 cells implanted in BALB/c mouse assessed as inhibition of tumor growth at 100 mg/kg, po measured after 14 days; assay type: functional, organism-based; details: time 14.0 day
[26] = Toxicity in BALB/c mouse assessed as spleen damage at 20 mg/kg, po measured after 29 days by H and E staining based analysis; assay type: organism-based; details: in vivo, 696 h, time 29 day

With N[C@@H]1[C@H]2CN(c3cnc(C(=O)Nc4cc(F)cc5cccnc45)cn3)C[C@@H]12 the Activity [1] was “Non-toxic”, the concentration at 7 h [2] was 882 ng/g and the TGI (CT26 [3]) was “Active”. The concentration at 7 h [4] was 2690 ng/g, the concentration at 7 h [5] was 1840 ng/g and the Activity (CT26 [6]) was “Active”. For the same compound, the concentration at 24 h [7] was 57 ng/g, the concentration at 24 h [8] was 137 ng/g and the Activity (CT26 [9]) was “Active”. It also gave a concentration at 24 h [10] of 7 ng/mL, an MTD at 168 h [11] of 140 mg/kg and a concentration at 7 h [12] of 2140 ng/g. The Activity [13] was “Non-toxic”, the Activity (KPC2) was “Active” and the concentration at 7 h [14] was 5530 ng/g. The concentration at 24 h [15] was 92 ng/g, the Activity [16] was “Non-toxic” and the Activity [17] was “Non-toxic”. The Activity (CT26 [18]) was “Active”, the Activity [19] was “Non-toxic” and the concentration at 7 h [20] was 293 ng/mL. The Activity [21] was “Non-toxic”, the Activity (CT26 [22]) was “Active” and the concentration at 24 h [23] was 48 ng/g. The concentration at 24 h [24] was 53 ng/g, the TGI (CT26 [25]) was “Active” and the Activity [26] was “Non-toxic”.

— ChEMBL document CHEMBL6109128, “Copper-KRAS-COX2 Axis: A Therapeutic Vulnerability in Pancreatic Cancer” (J Med Chem, 2025)
